Earlier results as cited in patent publication US11633409B2, “Solid preparation comprising dutasteride and method for preparing same” (JW PHARMACEUTICAL CORPORATION, priority 2017, dated 2023).
Where two headings read alike, the source gives them in different places.

How the values were obtained:
[1] = not given; remark: listed apart in the source

SMILES: C[C@]12C=CC(=O)NC1CCC1C2CC[C@@]2(C)C1CC[C@@H]2C(=O)Nc1cc(C(F)(F)F)ccc1C(F)(F)F (stereo partly shown) [dutasteride, Dutasteride]
- solubility in water: insoluble in water
- equilibrium solubility ([1]; in Capmul MCM NF): 2.75 g/100 g
- equilibrium solubility ([1]; in PEG 400): 0.39 g/100 g
- equilibrium solubility ([1]; in Transcutol): 2.41 g/100 g
- equilibrium solubility ([1]; in ethanol): 4.40 g/100 g
- equilibrium solubility ([1]; in isopropanol): 3.06 g/100 g
- equilibrium solubility ([1]; in propylene glycol): 1.34 g/100 g
